Patent publication US7544694B2, “Substituted diaza-spiro-[5.5]-undecane derivatives and their use as neurokinin antagonists” (Janssen Pharmaceutica N.V., priority 2004, dated 2009)
Counter-ions that a name gives are not always drawn.

Assays:
[1] = target: NK1 (Homo sapiens, UniProt P25103); test: Signal transduction (ST), intracellular Ca++ (FLIPR), functional NK1 antagonistic activity; format: cell-based; settings: antagonist, read-out: NK1 pIC50 (converted)
Method in brief: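 Confluent cells were loaded with 2 μM Fluo3 for 1 h at 37° C, then washed into Krebs buffer pH 7.4 with 1.25 mM CaCl2 and 2.5 mM probenecid. Antagonists were preincubated 20 min at RT before agonist addition. Peak Ca++ transients were read by FLIPR, with EC50 or IC50 from sigmoidal non-linear regression.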

[2] = target: T1, NK3 (Homo sapiens, UniProt P29371); test: Signal transduction (ST), intracellular Ca++ (FLIPR), NK3; format: cell-based; settings: antagonist, read-out: NK3 pIC50 (converted)
T1 sequence (P29371 1-465): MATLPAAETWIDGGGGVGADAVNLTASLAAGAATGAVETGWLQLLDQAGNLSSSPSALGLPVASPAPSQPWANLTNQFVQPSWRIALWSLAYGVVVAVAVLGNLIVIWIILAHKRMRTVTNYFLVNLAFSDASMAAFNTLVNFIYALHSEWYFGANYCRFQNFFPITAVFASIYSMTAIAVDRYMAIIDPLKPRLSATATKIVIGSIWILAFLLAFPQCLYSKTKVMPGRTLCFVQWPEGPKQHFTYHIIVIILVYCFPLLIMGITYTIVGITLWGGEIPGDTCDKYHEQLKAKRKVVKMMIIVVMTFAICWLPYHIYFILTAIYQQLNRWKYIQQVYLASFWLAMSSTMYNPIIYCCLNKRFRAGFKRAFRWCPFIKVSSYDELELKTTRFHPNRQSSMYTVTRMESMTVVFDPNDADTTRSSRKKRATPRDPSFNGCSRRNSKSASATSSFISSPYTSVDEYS

[3] = target: T2, NK2 (Homo sapiens, UniProt P21452); test: Signal transduction (ST), intracellular Ca++ (FLIPR), NK2; format: cell-based; settings: antagonist, read-out: NK2 pIC50 (converted)
T2 sequence (P21452 1-398): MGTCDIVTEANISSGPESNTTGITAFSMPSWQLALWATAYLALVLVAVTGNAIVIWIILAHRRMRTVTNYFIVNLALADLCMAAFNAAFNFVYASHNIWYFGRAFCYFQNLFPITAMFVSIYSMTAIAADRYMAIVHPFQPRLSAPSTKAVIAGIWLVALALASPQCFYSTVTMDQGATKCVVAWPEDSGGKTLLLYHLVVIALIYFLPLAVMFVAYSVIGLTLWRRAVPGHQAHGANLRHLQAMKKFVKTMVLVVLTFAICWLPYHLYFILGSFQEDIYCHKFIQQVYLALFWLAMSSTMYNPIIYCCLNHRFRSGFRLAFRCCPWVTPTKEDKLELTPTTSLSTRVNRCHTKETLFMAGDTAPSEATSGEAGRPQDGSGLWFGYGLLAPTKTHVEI

NK1, sequence (P25103 whole entry): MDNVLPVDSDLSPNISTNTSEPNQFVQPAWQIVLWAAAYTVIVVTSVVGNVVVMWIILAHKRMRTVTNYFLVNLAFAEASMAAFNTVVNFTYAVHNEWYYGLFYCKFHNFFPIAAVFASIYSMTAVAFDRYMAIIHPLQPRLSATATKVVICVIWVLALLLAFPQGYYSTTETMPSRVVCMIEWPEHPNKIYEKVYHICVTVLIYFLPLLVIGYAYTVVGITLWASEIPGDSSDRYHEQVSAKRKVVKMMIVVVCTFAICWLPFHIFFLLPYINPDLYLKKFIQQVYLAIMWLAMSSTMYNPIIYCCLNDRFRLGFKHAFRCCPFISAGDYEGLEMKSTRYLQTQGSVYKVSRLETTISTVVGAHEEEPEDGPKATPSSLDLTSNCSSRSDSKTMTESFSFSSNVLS

Row | melting point [°C] | IC50 [1] [nM] | IC50 [2] [nM] | IC50 [3] [nM] | SMILES
1 |  | 347 | 4270 | 2630 | O=C(C1CC1)N1CCCC2(CCCN([C@H]3CCN(C(=O)c4cc(C(F)(F)F)cc(C(F)(F)F)c4)[C@H](Cc4ccccc4)C3)C2)C1 (stereo partly shown) [Compound 208]
2 |  | 631 | 3800 | 3550 | O=C(c1ccoc1)N1CCCC2(CCCN(C3CCN(C(=O)c4cc(C(F)(F)F)cc(C(F)(F)F)c4)C(Cc4ccccc4)C3)C2)C1 (stereo not shown) [Compound 212]

The next lines start with the compound.

Row | SMILES | melting point [°C] | IC50 [1] [nM] | IC50 [2] [nM] | IC50 [3] [nM]
3 | O=C(c1cc(C(F)(F)F)cc(C(F)(F)F)c1)N1CCC(N2CCC3(CCN(Cc4ccccc4)CC3)CC2)CC1Cc1ccccc1 (stereo not shown) (as salt: hydrochloric acid salt) [Compound 5] | 183 |  |  | 
4 | O=C(c1cc(C(F)(F)F)cc(C(F)(F)F)c1)N1CCC(N2CCC3(CC2)CCN(S(=O)(=O)c2cccs2)CC3)CC1Cc1ccccc1 (stereo not shown) (as salt: oxalate) [Compound 92] | 132 |  |  | 
5 | O=C(C1CC1)N1CCC2(CC1)CCN(C1CCN(C(=O)c3cc(C(F)(F)F)cc(C(F)(F)F)c3)C(Cc3ccccc3)C1)CC2 (stereo not shown) [Compound 3] | 160 | 37.2 | 1510 | 1100
6 | CC(C)(C)OC(=O)N1CCC2(CC1)CCN(C1CCN(C(=O)c3cc(C(F)(F)F)cc(C(F)(F)F)c3)C(Cc3ccc(Cl)c(Cl)c3)C1)CC2 (stereo not shown) [Compound 130] | 80 |  |  | 
7 | O=C1CC2(CCN1Cc1ccccc1F)CCN([C@@H]1CCN(C(=O)c3cc(C(F)(F)F)cc(C(F)(F)F)c3)[C@H](Cc3ccccc3)C1)CC2 [Compound 203] |  | 661 | > 10000 | 3390
8 | CC(C)(C)C(=O)N1CCCC2(CCCN([C@H]3CCN(C(=O)c4cc(C(F)(F)F)cc(C(F)(F)F)c4)[C@H](Cc4ccccc4)C3)C2)C1 (stereo partly shown) [Compound 207] |  | 589 | 5750 | 1910
